Data as given in patent US12415799B2, “Indazole-fused cyclic compound” (Zhejiang Yangli Pharmaceutical Technology Co., Ltd., priority 2020, dated 2025).
Like-named read-outs stand apart in the source and are kept apart here.

Key:
ERα = ERα (Homo sapiens (Human), UniProt P03372); test: Degradation experiment of MCF-7 ERα (ELISA); format: cell-based; settings: MCF-7 cell line, 4 hours incubation, total ERα ELISA; read-out: IC50 value of promoting ERα degradation
Excerpt: (2) Degradation Experiment of MCF-7 ERα Experimental Materials:
Phenol red-free MEM culture medium was purchased from Wisent, fetal bovine serum was purchased from Biosera, and Human Total ERα/NR3A1 ELISA kit was purchased from R&D. MCF-7 cell line was purchased from Cell Bank of Type Culture Collection of Chinese Academy of Sciences. Nivo5 multi-label analyzer (PerkinElmer).
MCF-7 cells were resuspended in culture medium (phenol red-free MEM+5% charcoal/dextran-treated fetal bovine serum+1% penicillin-streptomycin double antibody solution), and seeded in a clear 96-well cell culture plate with 80 μL per well containing 20,000 cells, and the cell culture plate was incubated overnight in a carbon dioxide incubator;
ELISA plate was coated with strips, human total estrogen receptor a capture antibody was diluted with 1×PBS with a final concentration of 1 μg/mL, and 100 μL of mixture was added to each well, and incubated overnight at 25° C.
Cell administration: The test compound was diluted to the 8th concentration with a multi-channel pipette, and the compound concentration was 20 μM and 4 μM, and then diluted to the 8th concentration of 0.256 nM in turn, and a double-duplicate experiment was set-up. 78 μL of culture medium was added to the middle plate, then 2 μL of gradient dilution compound per well was transferred to the middle plate according to the corresponding position, and 20 μL of the mixture per well was mixed evenly and transferred to the cell plate, and the final concentration of DMSO was 0.5%, and the mixture was incubated at 37° C. for 4 hours;
preparation of standard curve solution: 110 ng/mL of standard curve storage solution was 6-fold diluted with buffer (1×PBS containing 1 mM EDTA, 0.5% Triton X-100, pH 7.2 to 7.4) to obtain a solution with a concentration of 18.3 ng/mL, and then 91.5-fold diluted with buffer (1×PBS containing 1 mM EDTA, 0.5% Triton X-100, 1 M urea, pH 7.2 to 7.4) to obtain a solution with a concentration of 0.2 ng/mL, and 8-point gradient dilution was performed using buffer (1×PBS containing 1 mM EDTA, 0.5% Triton X-100, 1 M urea, pH 7.2 to 7.4) with a final concentration of […].
1×PBS was pre-cooled, and after the incubation of the compound, the supernatant was removed, and then the plate was washed with 250 μL of pre-cooled 1×PBS per well, then 30 µL of cell lysate per well (1×PBS containing 1 mM EDTA, 0.5% Triton X-100, 6 M urea, 1 mM active sodium orthovanadate, 2.5 mM sodium pyrophosphate, lx protease inhibitor, pH 7.2 to 7.4) was added, and lysed on ice for 15 minutes;
after cell was lysed in the cell plate, the cell lysate was 6-fold diluted with 150 μL of buffer (1×PBS containing 1 mM EDTA, 0.5% Triton X-100, pH 7.2 to 7.4) per well, and the mixture was mixed evenly by blowing with a multi-channel pipette, and 100 μL of solution per well was transferred to the ELISA plate;
the human total estrogen receptor a detection antibody stock solution (14.4 μg/mL) was 36-fold diluted with buffer (1×PBS containing 1% bovine serum albumin), and the final concentration of the detection antibody was 400 ng/mL, and 100 μL of the solution per well was transferred to the ELISA plate and incubated at 25° C. for 2 hours;
Data analysis: A, B, C and D in the four-parameter equation y=(A−D)/[1+(x/C)^B]+D were calculated according to the original data of the standard curve, wherein, y was the original OD450 value, x was the concentration of the corresponding point of the standard curve. According to the four-parameter equation and the OD450 reading of the original data of the sample, the concentration of ERα at the corresponding point was calculated. The equation (Sample−Min)/(Max−Min)×100% was used to convert the original data into inhibition rate, and the IC50 value could be obtained by curve fitting with four parameters (obtained by “log (inhibitor) vs. response—variable slope” mode in GraphPad Prism).
Max wells: Positive control wells reading at 100 nM Fulvestrant-treated cell wells […]

CYP1A2 = CYP1A2 (Homo sapiens (Human), UniProt P05177); format: in vitro ADME; settings: microsomes
CYP1A2, sequence (P05177 whole entry): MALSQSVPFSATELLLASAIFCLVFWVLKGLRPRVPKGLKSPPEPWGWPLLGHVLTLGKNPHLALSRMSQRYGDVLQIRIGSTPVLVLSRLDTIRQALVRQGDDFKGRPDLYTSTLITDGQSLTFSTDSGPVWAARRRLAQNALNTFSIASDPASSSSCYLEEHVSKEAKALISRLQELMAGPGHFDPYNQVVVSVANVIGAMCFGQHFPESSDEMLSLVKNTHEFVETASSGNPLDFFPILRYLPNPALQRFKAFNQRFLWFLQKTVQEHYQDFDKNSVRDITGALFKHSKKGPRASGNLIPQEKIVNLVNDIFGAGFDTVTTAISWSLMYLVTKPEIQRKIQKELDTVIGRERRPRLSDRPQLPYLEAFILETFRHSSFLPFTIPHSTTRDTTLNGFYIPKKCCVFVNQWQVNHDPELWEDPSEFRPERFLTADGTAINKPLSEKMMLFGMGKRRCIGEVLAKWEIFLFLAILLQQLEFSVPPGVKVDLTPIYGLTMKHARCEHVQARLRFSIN
Method: Experimental purposes: To test the inhibitory effect of test compound on the activity of human liver microsomal cytochrome P450 isoenzymes (CYP1A2 and CYP3A4) (Corning, Co., Ltd.).
Experimental operation: Firstly, the test compound (10 mM) was subjected to gradient dilution to prepare a working solution (100×final concentration), and the concentration of the working solution was: 5, 1.5, 0.5, 0.15, 0.05, 0.015 and 0.005 mM, respectively, and the working solution of each positive inhibitor of P450 isoenzyme (CYP1A2 and CYP3A4) and its specific substrate mixture (5 in 1) were prepared; and then the human liver microsomes frozen in the −80° C. refrigerator were thawed on ice, and all the human liver microsomes were dissolved, diluted with PB, and a certain concentration of working solution (0.253 mg/mL) was prepared; 20 μL of substrate mixture was added to the reaction plate (20 μL of PB was added to the blank well), while 158 μL of human liver microsomal working solution was added to the reaction plate, and the reaction plate was placed on ice for later use; at this time, 2 μL of various concentrations of the test compound (N=1) and specific inhibitor (N=2) were added to the corresponding well, and the corresponding organic solvent was added to the non-inhibitor (test compound or positive inhibitor) group as a control group sample (a ratio of DMSO:MeOH in the test compound control sample was 1:1, a ratio of DMSO:MeOH in the positive control sample was 1:9); after pre-incubation in a water bath at 37° C. for 10 min, 20 μL of coenzyme factor (NADPH) solution was added to the reaction plate, and incubated in a water bath at 37° C. for 10 min; and 400 μL of cold acetonitrile solution (internal standard was 200 ng/mL tolbutamide and labetalol) was added to terminate the reaction; the reaction plate was placed on a shaker and shaked for 10 minutes; and then centrifuged at 4,000 rpm for 20 minutes; 200 μL of the supernatant was taken and added to 100 μL of water for sample dilution; finally the plate was sealed, shaked and shaked well, for LC/MS/MS detection.

ERα, sequence (P03372 whole entry): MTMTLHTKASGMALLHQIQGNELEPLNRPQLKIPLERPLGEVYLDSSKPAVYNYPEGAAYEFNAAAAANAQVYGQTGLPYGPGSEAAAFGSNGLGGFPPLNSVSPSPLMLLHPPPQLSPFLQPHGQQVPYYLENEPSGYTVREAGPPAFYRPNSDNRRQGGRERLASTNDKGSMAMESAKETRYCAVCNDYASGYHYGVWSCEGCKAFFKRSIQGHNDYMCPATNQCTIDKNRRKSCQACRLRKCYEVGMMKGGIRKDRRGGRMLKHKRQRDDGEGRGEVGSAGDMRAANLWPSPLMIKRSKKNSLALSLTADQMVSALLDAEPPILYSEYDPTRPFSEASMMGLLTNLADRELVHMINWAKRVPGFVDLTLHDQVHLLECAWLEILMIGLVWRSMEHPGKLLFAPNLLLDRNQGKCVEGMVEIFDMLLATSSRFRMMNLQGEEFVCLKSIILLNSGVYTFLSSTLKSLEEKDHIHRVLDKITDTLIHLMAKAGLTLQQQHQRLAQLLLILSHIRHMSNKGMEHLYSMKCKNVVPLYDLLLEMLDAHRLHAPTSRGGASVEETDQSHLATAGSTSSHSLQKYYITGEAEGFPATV

| DC50 (ERα) | IC50 (CYP1A2; human, 10 min) | IC50 (ERα) | IC50 (CYP1A2) | SMILES |
| --- | --- | --- | --- | --- |
| 0.2 nM | > 50000 nM | – | – | FCCCN1CC(Nc2ccc(C3=C(CC(F)(F)F)CCCc4c3ccc3[nH]nc(F)c43)nc2)C1 [Compound 2] |
| – | – | 0.23 nM | > 50000 nM | FCCCN1CC[C@H](Nc2cnc(C3=C(CC(F)(F)F)CCCc4c3ccc3[nH]nc(F)c43)cn2)C1 [Compound 11A] |
